Here are results for three molecules from US8318792B2, “Therapeutic agent for amyotrophic lateral sclerosis” (Nippon Medical School Foundation, priority 2006, dated 2012).

The test system of the test is G1H-G93A transgenic mice. As to the kind of experiment: Clinical symptomatological evaluation (day of onset, survival period, disease period, stage periods). The class given is in vivo, mouse. The following applies: for time periods for the respective stages in comparison to placebo group / disease period extending effect in comparison to placebo group / onset delaying effect in comparison to placebo group / survival period extending effect in comparison to placebo group: Mann-Whitney's U test; for disease period extending effect in comparison to placebo group / onset delaying effect in comparison to placebo group / survival period extending effect in comparison to placebo group: log-rank test; for day of onset / disease period / survival period / time period of clinical symptomatological stage 1 / time period of clinical symptomatological stage 2 / time period of clinical symptomatological stage 3 / time period of clinical symptomatological stage 4 / time period of clinical symptomatological stage 5: average±SD. The procedure:
1) The procedure of concentration adjustment, and the amount and the procedure of administration of the compound (a) were as described below. As a base, 0.5% methylcellulose is prepared. 5 mg of the compound (a) is pulverized in an agate mortar, and then a small amount of 0.5% methylcellulose is added to form a complete suspension. Subsequently, a small amount of 0.5% methylcellulose is added gradually, so that finally 5 mg of the compound (a) is suspended in 10 mL of 0.5% methylcellulose. A sample of 5 mg of compound (a)/10 mL of 0.5% methylcellulose (5 mg/10 mL) was prepared by the above-described procedure, and thus the compound (a) was orally administered once a day in a dose of 5 mg per kg of the mouse body weight (5 mg/kg).
As the experimental animal, male transgenic mice over-expressing a high copy number (25 copies) of mutated human SOD1 gene with a G93A point mutation, i.e., B6SJL-TgN [SOD1-G93A]1Gur (G1H-G93A transgenic mice, JR2726; Hemizygote) (Gurney M E, et al., Science, 264, 1772-1775, 1994), were purchased from Jackson Laboratory (Bar Harbor, USA) and used. At the same time, wild-type male mice from the same litter, B6SJL-TgN[SOD1-G93A]1Gur (Wild-type), were also purchased from Jackson Laboratory and used.
The mice were subjected to a clinical symptomatological evaluation everyday. The clinical symptomatological evaluation was performed from one week after the arrival from Jackson Laboratory. […] The day of onset, the survival period and the disease period were indicated by the number of days. In regard to the indication of the number of days of the disease period, one day (one disease day) corresponds to within 24 hours from the onset (the “onset” is determined by the observation of the clinical symptomatological evaluation stage 1), and two days (two disease days) corresponds to more than 24 hours after and within 48 hours from the onset. Subsequent disease days after the onset were determined in the same manner.
The mice were divided into seven experimental groups, to which a placebo, the compound (a), compound (b), compound (c) or allopurinol was administered. That is, the seven groups consist of: an experimental group administered with placebo; a treatment experimental group administered with compound (a) before onset; a treatment experimental group administered with compound (a) after onset; a treatment experimental group administered with compound (b) before onset; a treatment experimental group administered with compound (c) before onset; a treatment experimental group administered with compound (c) after onset; and a treatment group administered with allopurinol before onset. Details of the respective groups will be described in the following.
Ten G1H-G93A transgenic mice were used. From the 80th day after birth, 5 mg/kg of the compound (a) was orally administered everyday. […]
Ten G1H-G93A transgenic mice were used. From the 80th day after birth, 5 mg/kg of the compound (b) was orally administered everyday.
Ten G1H-G93A transgenic mice were used. From the 80th day after birth, 5 mg/kg of the compound (c) was orally administered everyday. […]
Ten G1H-G93A transgenic mice were used. From the 80th day after birth, 5 mg/kg of allopurinol was orally administered everyday.
In regard to the results of the clinical symptomatological evaluation, the day of onset, the survival period (days taken to show quadriplegia and to reach the moribund state), the disease period (days taken to show quadriplegia and to reach the moribund state, from the day of onset), and the time periods for the respective stages of the clinical symptomatological evaluation, were indicated by the average±standard deviation. In regard to the results of the exercise tolerance test, the score values of the respective exercise tolerance tests, including the extension reflex test, inclined plane test, footprint test, rotarod test and beam balance test, were indicated by the average±standard deviation. […]

[1] abbreviates: 5 mg/kg oral daily from 80th day after birth (before onset).
Where [2] appears, read: 5 mg/kg oral daily from the day of onset (after onset).
Setting [3] is: 5 mg/kg oral once a day from 80th day after birth (before onset).
The mark [4] stands for this setting: 5 mg/kg oral once a day from the onset (after onset).

On to `Cc1nc(-c2ccc(OCC(C)C)c(C#N)c2)sc1C(=O)O` [compound (c), 2-[3-cyano-4-(2-methylpropoxy)phenyl]-4-methyl-5-thiazolecarboxylic acid], for which, under setting [1], the “time periods for the respective stages in comparison to placebo group” value (“time periods for the respective stages” for short) is given as “extended period of the respective stages with significant difference”, the “disease period extending effect in comparison to placebo group” value is recorded as “significant extension of the disease period”, the “onset delaying effect in comparison to placebo group” value (“onset delaying effect in comparison” for short) is recorded as “significant delaying of the day of onset” and the “survival period extending effect in comparison to placebo group” value was “significant extension of the survival period”. For the same molecule, under setting [2], the “time periods for the respective stages” value was “extended period of stage 3 (P<0.05, Mann-Whitney's U test) and stage 4 (P<0.05, Mann-Whitney's U test) with significant differences”; the “disease period extending effect in comparison to placebo group” value is “disease period extending effect”; the “survival period extending effect in comparison to placebo group” value is “survival period extending effect”. Besides, under setting [3], the day of onset was 112.0 ± 4.6 days, the disease period was 25.4 ± 3.2 days, the survival period came out at 136.4 ± 3.3 days and the “time period of clinical symptomatological stage 1” value was 7.5±0.9 days. Also, under setting [3], the “time period of clinical symptomatological stage 2” value is 6.7±1.2 days, the “time period of clinical symptomatological stage 3” value is recorded as 5.4±1.1 days, the “time period of clinical symptomatological stage 4” value came to 3.9±1.1 days and the “time period of clinical symptomatological stage 5” value amounted to 1.9±0.3 days. Under setting [4], the day of onset was 100.7 ± 4.3 days, the disease period is 24.2 ± 3.2 days, the survival period worked out at 123.9 ± 3.2 days and the “time period of clinical symptomatological stage 1” value came out at 7.6±1.2 days. In addition, under setting [4], the “time period of clinical symptomatological stage 2” value turned out to be 6.2±0.8 days, the “time period of clinical symptomatological stage 3” value turned out to be 5.4±1.1 days, the “time period of clinical symptomatological stage 4” value is given as 3.5±0.5 days and the “time period of clinical symptomatological stage 5” value is 1.5±0.5 days.

Turning to `N#Cc1cc(-c2n[nH]c(-c3ccncc3)n2)ccn1` [compound (b), 4-(5-pyridin-4-yl-1H-[1,2,4]triazol-3-yl)pyridine-2-carbonitrile], under setting [1], the “time periods for the respective stages” value is “extended period of the respective stages with significant difference”, the “disease period extending effect in comparison to placebo group” value is “significant extension of the disease period”, the “onset delaying effect in comparison” value is reported as “significant delaying of the day of onset” and the “survival period extending effect in comparison to placebo group” value is given as “significant extension of the survival period”. Further, under setting [3], the day of onset amounted to 111.6 ± 3.7 days, the disease period was determined as 24.3 ± 3.4 days, the survival period is 134.9 ± 3.4 days and the “time period of clinical symptomatological stage 1” value is 7.4±0.7 days. Also, under setting [3], the “time period of clinical symptomatological stage 2” value worked out at 6.4±1.2 days, the “time period of clinical symptomatological stage 3” value turned out to be 5.3±1.2 days, the “time period of clinical symptomatological stage 4” value is 3.5±0.5 days and the “time period of clinical symptomatological stage 5” value is on record as 1.7±0.5 days.

In the case of `CC(C)(C)COc1ccc(-n2cc(C(=O)O)cn2)cc1C#N` [compound (a), 1-[3-cyano-4-(2,2-dimethylpropoxy)phenyl]-1H-pyrazole-4-carboxylic acid], under setting [1], the “time periods for the respective stages” value was “extended period of respective stages with significant difference”, the “disease period extending effect in comparison to placebo group” value is listed as “significant extension of the disease period”, the “onset delaying effect in comparison” value is “significant delaying of the day of onset” and the “survival period extending effect in comparison to placebo group” value is given as “significant extension of the survival period”. Also, under setting [2], the “time periods for the respective stages” value was “extended period of stage 3 (P<0.05, Mann-Whitney's U test) and stage 4 (P<0.05, Mann-Whitney's U test) with significant differences”; the “disease period extending effect in comparison to placebo group” value is “significant extension of the disease period”; the “survival period extending effect in comparison to placebo group” value is “significant extension of the survival period”. Under setting [3], the day of onset was 113.0 ± 4.8 days, the disease period turned out to be 24.9 ± 3.1 days, the survival period turned out to be 136.9 ± 3.8 days and the “time period of clinical symptomatological stage 1” value was determined as 7.5±0.7 days. In addition, under setting [3], the “time period of clinical symptomatological stage 2” value is 6.6±1.2 days, the “time period of clinical symptomatological stage 3” value is 5.4±1.1 days, the “time period of clinical symptomatological stage 4” value was determined as 3.6±0.7 days and the “time period of clinical symptomatological stage 5” value is given as 1.8±0.4 days. Under setting [4], the day of onset is 99.8 ± 2.4 days, the disease period came to 23.9 ± 1.7 days, the survival period stood at 122.7 ± 2.1 days and the “time period of clinical symptomatological stage 1” value turned out to be 7.3±0.7 days. Besides, under setting [4], the “time period of clinical symptomatological stage 2” value was found to be 6.0±0.7 days, the “time period of clinical symptomatological stage 3” value was found to be 5.3±0.9 days, the “time period of clinical symptomatological stage 4” value came out at 3.5±0.5 days and the “time period of clinical symptomatological stage 5” value is reported as 1.8±0.4 days.
